Legend:
[1] = mice, 24 h after oral administration; cited from earlier work
[2] = Solubility in aqueous media; assay type: physicochemical
[3] = test system: ALK-positive H2228 and ALK-negative H441 cells; test: Live cell tracer uptake assay; assay type: cell-based, human; conditions: after 30 min of incubation
H441 cells = test: Cytotoxicity assay; assay type: cell-based, human; conditions: 72 h
[4] = test system: P-glycoprotein efflux transporter; conditions: Caco-2 colorectal adenocarcinoma cells; cited from earlier work

SMILES: Cc1cc(Nc2ncc(Cl)c(Nc3ccccc3S(=O)(=O)C(C)C)n2)c(OC(C)C)cc1C1CCNCC1 [Ceritinib, 5-Chloro-N2-(2-isopropoxy-5-methyl-4-(piperidin-4-yl)phenyl)-N4-(2-(isopropylsulfonyl)phenyl)pyrimidine-2,4-diamine, reference compound]
- drug found in the brain [1]: 0.4%
- IC50 (H2228 cells): 2900 nM

SMILES: Cc1cc(Nc2ncc(Cl)c(Nc3ccccc3S(=O)(=O)C(C)C)n2)c(OC(C)C)cc1C1CCN(CCF)CC1 [[^18F]9]
- solubility in water or saline ([2]; water or saline): insoluble
- cell-associated radioactivity, H2228 vs H441 [3]: higher uptake in the ALK-positive H2228 cells

SMILES: CCc1cc2c(cc1N1CCC(N3CCOCC3)CC1)C(C)(C)c1c(c3ccc(C#N)cc3n1CCF)C2=O [Compound 4, 9-Ethyl-6,6-dimethyl-8-[4-(morpholin-4-yl)piperidin-1-yl]-11-oxo-6,11-dihydro-5(2-fluoroethyl)-benzo[b]carbazole-3-carbonitrile]
- solubility in saline or PBS solutions [2]: not soluble
- effect on ALK-negative H441 cells (cytotoxicity) (H441 cells): no substantial effect

SMILES: C[C@@H](Oc1cc(-c2cnn(C3CCN(CCF)CC3)c2)cnc1N)c1c(Cl)ccc(F)c1Cl [Compound 1, 3-((R)-1-(2,6-dichloro-3-fluorophenyl)ethoxy)-5-(1-(fluoroethylpiperidin-4-yl)-1H-pyrazol-4-yl)pyridin-2-amine]
- solubility in saline or PBS solutions [2]: not soluble
- fold loss of potency versus parent drug (H2228 cells): less than 3 fold

SMILES: CCc1cc2c(cc1N1CCC(N3CCOCC3)CC1)C(C)(C)c1[nH]c3cc(C#N)ccc3c1C2=O [Alectinib, 9-Ethyl-6,6-dimethyl-8-[4-(morpholin-4-yl)piperidin-1-yl]-11-oxo-6,11-dihydro-5H-benzo[b]carbazole-3-carbonitrile]
- transport by the P-glycoprotein efflux transporter [4]: not transported

SMILES: Cc1cc(Nc2ncc(Cl)c(Nc3ccccc3S(=O)(=O)C(C)C)n2)c(OC(C)C)cc1C1CCN(CCF)CC1 [Compound 9, 5-Chloro-N2–(2-isoprpoxy-5-methyl-4-(1-fluoroethylpiperidin-4-yl)phenyl)-N4-[2-(propane-2-sulfonyl)phenyl]pyrimidine-2,4-diamine]
- solubility in saline or PBS solutions [2]: not soluble
- fold loss of potency versus parent drug (H2228 cells): ~10 fold

Reference: article PMC7193943 (European journal of medicinal chemistry, 2019)
